# According to patent US20260042771A1, “HETEROCYCLIC COMPOUND FOR INDUCING DEGRADATION OF G12V MUTANT KRAS PROTEIN” (Astellas Pharma Inc., priority 2022, published 2026):
# Assays:
# RAS G12V = target: T1, RAS G12V (Homo sapiens, UniProt P01116, G12V); assay: Test Example 1: RAS G12V degradation activity by Cell ELISA in PA-TU-8902; format: cell-based; conditions: for DC50: 50% degradation concentration of RAS G12V, PA-TU-8902 cells, 24 hours, Cell ELISA, corrected with β-actin; for Dmax: PaTu 8902, degradation rate at the most active concentration, DMSO = 0%, Example No. 7 at 3 μM = 100%, PA-TU-8902, 24 hours
# T1 construct: host or cells: PA-TU-8902 human pancreatic cancer cells
# Description: Test Example 1: Evaluation of RAS G12V Degradation Activity on Human KRAS G12V Mutant-Positive Pancreatic Cancer Line PA-TU-8902
# The RAS G12V degradation activity of test compounds was evaluated by measuring the expression levels of RAS G12V by Cell ELISA.
# PA-TU-8902 cells (DSMZ, ACC 179) were seeded at 36 μL per well on 384-well plates (from Greiner bio-one) to give 1.5×10^4 cells per well. As for the cell culture conditions, DMEM medium (from Sigma-Aldrich) containing 10% fetal bovine serum (from Cytiva) was used in the presence of 5% CO2 at 37° C.
# The next day, the test compounds (10 points having final concentrations in the range of 3 μM to 0.1 nM), the compound of Example No. 7 having a final concentration of 3 μM as a positive control and dimethyl sulfoxide (DMSO), which was the solvent for the test compounds, as a negative control were diluted 100-fold with a fresh medium and were added at 4 μL per well. The cells were cultured for 24 hours.
# The next day, the culture supernatant was removed, and 4% paraformaldehyde phosphate buffer (from FUJIFILM Wako Pure Chemical Corporation) was added at 20 μL per well. The plates were allowed to stand for 30 minutes at room temperature to thus immobilize the cells. Then, the supernatant was removed, and 0.1% Triton X-100 (from Amersham Biosciences)-containing Phosphate buffered saline (PBS) was added at 20 μL per well. After allowing to stand at room temperature for 10 minutes, the supernatant was removed. PBS was added at 25 μL per well, and the supernatant was removed to thus wash each well. The washing was performed twice in total. Subsequent washing operations were performed in the same manner. Next, the supernatant was removed, and 0.5% sodium dodecyl sulfate (SDS; from ThermoFisher Scientific)-containing PBS was added at 20 μL per well. After allowing to stand at room temperature for 10 minutes, the supernatant was removed by centrifugation of the plates. After washing with PBS, the supernatant was removed by centrifugation, and blocking solution (PVDF Blocking Reagent for Can Get Signal [from TOYOBO Co., Ltd.]) was added at 20 μL per well. After allowing to stand for 30 minutes at room temperature, the supernatant was removed by centrifugation and a solution obtained by diluting, as primary antibodies, anti-Ras (G12V Mutant Specific) antibody (Ras (G12V Mutant Specific) (D2H12) Rabbit mAb; from Cell Signaling Technology; 500-fold diluted) and […] (Anti-beta Actin antibody; from Abcam; 5,000-fold diluted) with Can Get Signal Solution 2 (from TOYOBO Co., Ltd.) was added at 15 μL per well. The plates were allowed to stand overnight at 4° C.
# The next day, the supernatant was removed by centrifugation and washed with PBS. The supernatant was removed by centrifugation, a solution obtained by diluting, as secondary antibodies, anti-rabbit IgG antibody (IRDye 800CW Goat anti-Rabbit IgG; from LI-COR Biosciences) and anti-mouse IgG antibody (IRDye 680RD Donkey anti-Mouse IgG; from LI-COR Biosciences) 1,000-fold with Can Get Signal Solution 2 was added at 15 μL per well. After allowing to stand at room temperature for 1 hour, the supernatant was removed by centrifugation and washed with PBS. After removing the supernatant, the plates were dried with air at room temperature for 2 hours or more, and the 700 nm and 800 nm fluorescent signals were measured with Aerius (from LI-COR Biosciences).
# The degradation rate of RAS G12V was calculated with the RAS G12V signaling value at the time of addition of DMSO taken as 0%, which was corrected with the signaling value of β-actin, and with the RAS G12V signaling value at the time of addition of the compound of Example No. 7 at a final concentration of 3 μM taken as 100%. […]
# [1] = test system: human KRAS G12V mutant-positive pancreatic cancer line PA-TU-8902; assay: Test Example 3: non-anchorage-dependent cell growth inhibition, spheroid 3D culture; format: cell-based; conditions: PaTu 8902, 144 h, PA-TU-8902 spheroid 3D culture, 6 days, CellTiter Glo 2.0
# Description: Test Example 3: Evaluation of Non-Anchorage-Dependent Cell Growth Inhibitory Effect on Human KRAS G12V Mutant-Positive Pancreatic Cancer Line PA-TU-8902
# The non-anchorage-dependent cell growth inhibitory effect of test compounds was evaluated by spheroid 3D cell culture.
# PA-TU-8902 cells were seeded on low-cell-adhesive round bottom 384-well plates (PrimeSurface: from Sumitomo Bakelite) at 36 µL/well to give 5×10^2 cells per well. The cell culture was performed under the same conditions as in Test Example 1.
# The next day, the test compounds (8 to 10 points having final concentrations in the range of 3 μM to 0.1 nM) and DMSO, which was the solvent for the test compounds, as a negative control were diluted 100-fold with a fresh medium and were added at 4 μL per well. After culturing in the presence of 5% CO2 at 37° C. for 6 days, CellTiter Glo 2.0 (from Promega) was added at 20 μL per well. After stirring with a plate mixer (from FINEPCR) at normal temperature for 1 hour, the luminescent signals were measured with ARVO X3 (from PerkinElmer).
# With the signaling value in treatment with DMSO taken as 0% inhibition and with the signaling value in the medium alone without cells taken as 100% inhibition, the 50% inhibitory concentration values (IC50) were calculated by Sigmoid-Emax nonlinear regression analysis. The inhibition rate at 30 nM was calculated for Example No. 17.
# T1 sequence (P01116 1-188 isoform P01116-2 G12V): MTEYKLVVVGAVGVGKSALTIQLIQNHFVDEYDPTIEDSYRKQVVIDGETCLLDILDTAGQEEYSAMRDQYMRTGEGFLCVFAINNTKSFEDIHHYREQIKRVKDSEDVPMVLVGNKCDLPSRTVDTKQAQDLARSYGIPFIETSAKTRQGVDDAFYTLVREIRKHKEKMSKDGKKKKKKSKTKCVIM
Compound,DC50 (RAS G12V) [µM],Dmax (RAS G12V) [%],IC50 [1] [µM]
"CO[C@@H](C)COc1nc(N2CC[C@H]2C(N)=O)c2cc(C3CC3)c(-c3c(C)c(F)cc4[nH]ncc34)c(OCc3ccc(C(=O)N4CCN(Cc5ccc6c(N7CCC(=O)NC7=O)nn(C)c6c5)C[C@@H]4C)cc3)c2n1 (atropisomer, axis not shown) [Example 5, (2S)-1-((7 M)-6-cyclopropyl-8-((4-[(2S)-4-{[3-(2,4-dioxo-1,3-diazinan-1-yl)-1-methyl-1H-indazol-6-yl]methyl)-2-methylpiperazine-1-carbonyl]phenyl)methoxy)-7-(6-fluoro-5-methyl-1H-indazol-4-yl)-2-[(2S)-2-methoxypropoxy]quinazolin-4-yl}azetidine-2-carboxyamide]",0.005,97,0.015
"Cc1c(F)cc2[nH]ncc2c1-c1c(C2CC2)cc2c(N3CC[C@H]3C(N)=O)nc(OC[C@@H]3CCN(C)C3)nc2c1OCc1ccc(C(=O)N2CCN(Cc3ccc4c(N5CCC(=O)NC5=O)nn(C)c4c3)C[C@@H]2C)cc1 (atropisomer, axis not shown) [Example 7]",0.038,103,0.055
"Cc1c(F)cc2[nH]ncc2c1-c1c(C2CC2)cc2c(N3CCOCC3)nc(OCC(C)(C)CN(C)C)nc2c1OCc1ccc(C(=O)N2CCN(Cc3ccc4c(c3)n(C)c(=O)n4N3CCC(=O)NC3=O)C[C@@H]2C)cc1 (atropisomer, axis not shown) [Example 9]",0.006,88,0.047
"Cc1c(F)cc2[nH]ncc2c1-c1c(C2CC2)cc2c(N3CC(C#N)C3)nc(OCC(C)(C)CN(C)C)nc2c1OCc1ccc(C(=O)N2CCN(Cc3ccc4c(c3)n(C)c(=O)n4N3CCC(=O)NC3=O)C[C@@H]2C)cc1 (atropisomer, axis not shown) [Example 10]",0.006,88,0.022
"Cc1c(F)cc2[nH]ncc2c1-c1c(C2CC2)cc2c(N3CC(C#N)C3)nc(OCC(C)(C)CN(C)C)nc2c1OCc1ccc(C(=O)N2CCN(Cc3ccc4c(N5CCC(=O)NC5=O)nn(C)c4c3)C[C@@H]2C)cc1 (atropisomer, axis not shown) [Example 11]",0.011,88,0.018
"CO[C@@H](C)COc1nc(N2CC(C#N)C2)c2cc(C3CC3)c(-c3c(C)c(F)cc4[nH]ncc34)c(OCc3ccc(C(=O)N4CCN(Cc5ccc6c(N7CCC(=O)NC7=O)nn(C)c6c5)CC4)cc3)c2n1 (atropisomer, axis not shown) [Example 12]",0.013,87,0.033
"CO[C@@H](C)COc1nc(N2CC(C#N)C2)c2cc(C3CC3)c(-c3c(C)c(F)cc4[nH]ncc34)c(OCc3ccc(C(=O)N4CCC5(CN(Cc6ccc7c(N8CCC(=O)NC8=O)nn(C)c7c6)C5)C4)cc3)c2n1 (atropisomer, axis not shown) [Example 13]",0.027,104,0.055
"CO[C@@H](C)COc1nc(N2CC(C#N)C2)c2cc(C3CC3)c(-c3c(C)c(F)cc4[nH]ncc34)c(OCc3ccc(C(=O)N4CCN(Cc5ccc6c(N7CCC(=O)NC7=O)nn(C)c6c5)C[C@@H]4C)cc3)c2n1 (atropisomer, axis not shown) [Example 14]",0.004,100,0.012
"CO[C@@H](C)COc1nc(N2CC(C#N)C2)c2cc(C3CC3)c(-c3c(C)c(F)cc4[nH]ncc34)c(OCc3ccc(C(=O)N4CC[C@H](CN(C)Cc5ccc6c(N7CCC(=O)NC7=O)nn(C)c6c5)C4)cc3)c2n1 (atropisomer, axis not shown) [Example 15]",0.092,85,0.139
"CO[C@@H](C)COc1nc(N2CC(C#N)C2)c2cc(C3CC3)c(-c3c(C)c(F)cc4[nH]ncc34)c(OCc3ccc(C(=O)N4CC5(CN(Cc6ccc7c(N8CCC(=O)NC8=O)nn(C)c7c6)C5)C4)cc3)c2n1 (atropisomer, axis not shown) [Example 16]",0.162,95,0.255
"CO[C@@H](C)COc1cc(OC2CN(C(=O)NCCN(C)C)C2)c2cc(C3CC3)c(-c3c(C)c(F)cc4[nH]ncc34)c(OCc3ccc(C(=O)N4CCN(Cc5ccc6c(N7CCC(=O)NC7=O)nn(C)c6c5)C[C@@H]4C)cc3)c2n1 (atropisomer, axis not shown) [Example 18]",0.065,78,0.149
"CO[C@@H](C)COc1nc(N2CC[C@H]2C(N)=O)c2cc(C3CC3)c(-c3c(C)c(F)cc4[nH]ncc34)c(OCc3ccc(CN4CCN(Cc5ccc6c(N7CCC(=O)NC7=O)nn(C)c6c5)C[C@@H]4C)cc3)c2n1 (atropisomer, axis not shown) [Example 19]",0.026,78,0.068
"CO[C@@H](C)COc1nc(N2CC[C@H]2C(N)=O)c2cc(C3CC3)c(-c3c(C)c(F)cc4[nH]ncc34)c(OCc3ccc(CN4CCN(Cc5ccc6c(N7CCC(=O)NC7=O)nn(C)c6c5)CC4=O)cc3)c2n1 (atropisomer, axis not shown) [Example 20, (2S)-1-{(7 M)-6-cyclopropyl-8-({4-[(4-{[3-(2,4-dioxo-1,3-diazinan-1-yl)-1-methyl-1H-indazol-6-yl]methyl)-2-oxopiperazin-1-yl)methyl]phenyl}methoxy)-7-(6-fluoro-5-methyl-1H-indazol-4-yl)-2-[(2S)-2-methoxypropoxy]quinazolin-4-yl)azetidine-2-carboxyamide]",0.029,85,0.085
"Cc1c(F)cc2[nH]ncc2c1-c1c(C2CC2)cc2c(N3CC(C#N)C3)nc(OC3CCOCC3)nc2c1OCc1ccc(C(=O)N2CCN(Cc3ccc4c(N5CCC(=O)NC5=O)nn(C)c4c3)C[C@@H]2C)cc1 (atropisomer, axis not shown) [Example 21]",–,–,0.011
"CO[C@@H](C)COc1nc(N2CC(C#N)C2)c2cc(C3CC3)c(-c3c(C)c(F)cc4[nH]ncc34)c(OCc3ccc(C(=O)N4CCC5(CCN(CCOc6cccc(N7CCC(=O)NC7=O)c6)CC5)CC4)cc3)c2n1 (atropisomer, axis not shown) [Example 22]",–,–,0.005
CO[C@@H](C)COc1nc(OC2CN(C(=O)NCCN(C)C)C2)c2cc(C3CC3)c(-c3c(C)c(F)cc4[nH]ncc34)c(OCc3ccc(C(=O)N4CCN(Cc5ccc6c(c5)n(C)c(=O)n6C5CCC(=O)NC5=O)C[C@@H]4C)cc3)c2n1 (some centres unmarked) [Example 1],0.006,77,0.042
